The results in this text go back to BindingDB's records for aid1799744 (Csar, 2012).

The structures appear in SMILES notation.

Chain of Mitogen-activated protein kinase 1 (P28482 whole entry): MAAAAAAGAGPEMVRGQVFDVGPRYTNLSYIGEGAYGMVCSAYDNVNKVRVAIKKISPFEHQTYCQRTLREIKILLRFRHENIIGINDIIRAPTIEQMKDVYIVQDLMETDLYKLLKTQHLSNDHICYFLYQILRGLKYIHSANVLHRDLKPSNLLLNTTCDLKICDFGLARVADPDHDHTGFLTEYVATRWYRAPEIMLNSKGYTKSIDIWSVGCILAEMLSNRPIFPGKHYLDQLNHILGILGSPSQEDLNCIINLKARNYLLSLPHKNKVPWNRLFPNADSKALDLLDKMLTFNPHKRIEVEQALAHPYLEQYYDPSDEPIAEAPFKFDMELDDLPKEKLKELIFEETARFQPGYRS

This assay has as its target Mitogen-activated protein kinase 1 (Homo sapiens, UniProt P28482). Put plainly: Assay 1.
Take `Nc1ncc(-c2cc(Cl)cc(Cl)c2)c(-c2c[nH]c(C(=O)N[C@H](CO)c3ccccc3)c2)n1` [erk000031]: the Ki stood at 229 nM.

`CNc1ncc(C)c(-c2c[nH]c(C(=O)NCc3cccc4ccccc34)c2)n1` [erk000036] returned a Ki of 58 nM.

In turn, `Cc1cnc(N)nc1-c1c[nH]c(C(=O)NCc2cccc3ccccc23)c1` [erk000037] showed a Ki of 603 nM. Molecule `CCNc1ncc(C)c(-c2c[nH]c(C(=O)NCc3ccc(F)c(F)c3)c2)n1` [erk000038] displayed a Ki of 240 nM. Under `CCNc1ncc(C)c(-c2c[nH]c(C(=O)NCc3ccccc3C(F)(F)F)c2)n1` [erk000039] stands 4570 nM. Molecule `Cc1cnc(Nc2ccccc2)nc1-c1c[nH]c(C(=O)N[C@H](CO)c2ccccc2)c1` [erk000040] displayed a Ki of 4 nM.

In turn, `CCNc1ncc(C)c(-c2c[nH]c(C(=O)N[C@H](CO)c3ccccc3)c2)n1` [erk000041] displayed a Ki of 3 nM.

The molecule `CNc1ncc(C)c(-c2c[nH]c(C(=O)NCc3cccc(C(F)(F)F)c3)c2)n1` [erk000042] had a Ki of 468 nM. Under `Cc1cnc(N)nc1-c1c[nH]c(C(=O)NCc2cccc(C(F)(F)F)c2)c1` [erk000043] stands 562 nM. In the case of `CNc1ncc(C)c(-c2c[nH]c(C(=O)NCc3ccccc3)c2)n1` [erk000045], the Ki was 776 nM. This Ki and that of the molecule before are within 1.5-fold of each other. As for `CNc1ncc(C)c(-c2c[nH]c(C(=O)N[C@H](CO)c3ccccc3)c2)n1` [erk000046], the figure is 59 nM; as for `CCNc1ncc(C)c(-c2c[nH]c(C(=O)NCc3ccccc3)c2)n1` [erk000047], 89 nM. For `CCNc1ncc(C)c(-c2c[nH]c(C(=O)N[C@@H](CO)c3ccccc3)c2)n1` [erk000048], the affinity, expressed as Ki, was 12900 nM. This Ki is about 140-fold higher than that of the molecule before.

`O=C(NCc1ccc2c(c1)OCO2)c1cc(-c2ccnc(Nc3ccccc3)n2)c[nH]1` [erk000049]: the Ki was 269 nM. `CNc1ncc(C)c(-c2c[nH]c(C(=O)NCc3ccc(Cl)cc3Cl)c2)n1` [erk000054] had a Ki of 2000 nM. Regarding `Cc1cnc(N)nc1-c1c[nH]c(C(=O)NCc2ccc(Cl)cc2Cl)c1` [erk000055], the Ki is 6760 nM. Against the preceding molecule, the Ki is about 3.4-fold higher.

Consider `CNc1ncc(C)c(-c2c[nH]c(C(=O)NCc3ccc(F)c(F)c3)c2)n1` [erk000056], for which the Ki worked out at 3720 nM. With `O=C(c1cc(-c2ccnc(Nc3ccccc3)n2)c[nH]1)N1CCc2ccccc2C1` [erk000057], the Ki was determined as 525 nM. This Ki lies about 7.1-fold lower than the previous one. Under `CCNc1ncc(C)c(-c2c[nH]c(C(=O)N3CCc4ccccc4C3)c2)n1` [erk000058] stands 1590 nM; under `CN(Cc1ccccc1)C(=O)c1cc(-c2ccnc(Nc3ccccc3)n2)c[nH]1` [erk000059], 302 nM; under `CCNc1ncc(CC)c(-c2c[nH]c(C(=O)N[C@H](CO)c3ccccc3)c2)n1` [erk000060], 120 nM. Consider `CCNc1ncc(C)c(-c2c[nH]c(C(=O)NCc3cccc(C(F)(F)F)c3)c2)n1` [erk000062], for which the Ki was 141 nM.

Molecule `CCc1cnc(N)nc1-c1c[nH]c(C(=O)N[C@H](CO)c2ccccc2)c1` [erk000065] registered an inhibition constant (Ki) of 288 nM. In turn, `Cc1cnc(N)nc1-c1c[nH]c(C(=O)NCc2ccc3c(c2)OCO3)c1` [erk000066] returned an inhibition constant (Ki) of 141 nM. Compared with the last molecule, the Ki is about 2-fold lower.

Take `Nc1nccc(-c2c[nH]c(C(=O)N[C@H](CO)c3ccccc3)c2)n1` [erk000067]: the affinity, expressed as Ki, was 324 nM. Molecule `CCNc1nccc(-c2c[nH]c(C(=O)N[C@H](CO)c3ccccc3)c2)n1` [erk000068] showed an inhibition constant (Ki) of 100 nM. Molecule `CCc1cnc(N)nc1-c1c[nH]c(C(=O)NCc2cccc3ccccc23)c1` [erk000070] gave a Ki of 1100 nM. Compared with the last molecule, the Ki is about 11-fold higher. The molecule `Clc1ccc(-c2n[nH]c3c2CCCC3)cc1` [erk000071] gave an inhibition constant Ki of 5250 nM.

The molecule `Cc1onc(-c2ccccc2)c1-c1ccnc(NC2CCC(O)CC2)n1` (stereo unspecified) [erk000075] had a Ki of 1000 nM. For `Cc1onc(-c2ccccc2)c1-c1ccn(C(=O)NC(C)C)n1` [erk000088], the affinity, expressed as Ki, was 15100 nM. On to `Cc1cnc(N)nc1-c1c[nH]c(C(=O)NCc2ccccc2)c1` [erk000103], for which the affinity, expressed as Ki, was 832 nM. Compared with the last molecule, the Ki is about 18-fold lower. As for `O=C(NCc1ccncc1)c1cc(-c2n[nH]cc2-c2cc(Cl)cc(Cl)c2)c[nH]1` [erk000114], the figure is 79 nM; as for `O=C(c1cc(-c2n[nH]cc2-c2cc(Cl)cc(Cl)c2)c[nH]1)N1CCOCC1` [erk000124], 813 nM; as for `Fc1ccc(-c2n[nH]cc2-c2ccnc(NC3CCCCC3)c2)cc1` [erk000125], 2570 nM. For `CCN(C)C(=O)c1cc(-c2[nH]ncc2-c2ccc(F)c(Cl)c2)c[nH]1` [erk000142], affinity was put at a Ki of 251 nM.

Turning to `O=C(N[C@H](CO)c1ccccc1)c1cc(-c2n[nH]cc2-c2cccc(C(F)(F)F)c2)c[nH]1` [erk000184], affinity was put at a Ki of 83 nM. On to `CCN(CC)CCOc1ccc(Nc2ncc3cc(-c4c(Cl)cccc4Cl)c(=O)n(C)c3n2)cc1` [erk000225], for which the Ki was 174 nM. Against the preceding molecule, the Ki is about 2.1-fold higher. As to `O=C(NCc1ccc2c(c1)CCO2)c1cc(-c2n[nH]cc2-c2cccc(Cl)c2)c[nH]1` [erk000232], the Ki came to 21 nM. Compared with the last molecule, the Ki is about 8.3-fold lower. For the molecule `C[S+]([O-])c1ccc(-c2nc(-c3cccc(I)c3)c(-c3ccncc3)[nH]2)cc1` (stereo unspecified) [erk000253], the Ki was 12900 nM. This Ki is about 610-fold higher than that of the molecule before. The molecule `NCc1ccc(-c2cn[nH]c2-c2c[nH]c(C(=O)NCc3ccc4c(c3)CCO4)c2)cc1C(F)(F)F` [erk000282] yielded a Ki of 191 nM. For the molecule `CC1CCN(c2nc(Nc3cc(C4CC4)n[nH]3)c3ccccc3n2)CC1` [erk000284], the Ki was 65 nM. Against the preceding molecule, the Ki is about 2.9-fold lower. As for `Cc1cnc(N)nc1-c1c[nH]c(C(=O)NCc2ccc(F)c(F)c2)c1` [erk000286], the Ki came to 48 nM. Turning to `Cc1cnc(N)nc1-c1c[nH]c(C(=O)N[C@H](CO)c2ccccc2)c1` [erk000287], affinity was put at a Ki of 1910 nM. Consider `Cc1cnc(N)nc1-c1c[nH]c(C(=O)NCc2ccc(Cl)cc2)c1` [erk000302], for which the Ki came out at 617 nM. This Ki lies about 3.1-fold lower than the previous one. Molecule `Cc1cnc(N)nc1-c1c[nH]c(C(=O)NCc2cccc(Cl)c2)c1` [erk000303] showed a Ki of 81 nM. The molecule `Cc1cnc(N)nc1-c1c[nH]c(C(=O)NCc2ccc(F)c(Cl)c2)c1` [erk000304] had a Ki of 372 nM. For `Cc1cnc(N)nc1-c1c[nH]c(C(=O)N[C@@H](CCO)c2ccccc2)c1` [erk000305], the affinity, expressed as Ki, was 1550 nM.

With `Cc1cnc(N)nc1-c1c[nH]c(C(=O)N[C@H](CCO)c2ccccc2)c1` [erk000306], the Ki amounted to 15800 nM. Against the preceding molecule, the Ki is about 10-fold higher.

Turning to `Cc1cnc(NC2CCCCC2)nc1-c1c[nH]c(C(=O)NCc2ccc(F)c(F)c2)c1` [erk000310], the Ki turned out to be 71 nM.

For `Cc1cnc(N)nc1-c1c[nH]c(C(=O)NCc2ccccc2F)c1` [erk000311], the Ki was determined as 4790 nM. Molecule `COc1ccccc1CNC(=O)c1cc(-c2nc(N)ncc2C)c[nH]1` [erk000312] registered an inhibition constant Ki of 2510 nM. This Ki is about 1.9-fold lower than that of the molecule before. As to `Cc1cnc(N)nc1-c1cc(C(=O)NCc2ccc(F)c(Cl)c2)n(Cc2ccccc2)c1` [erk000317], the Ki was determined as 11000 nM.

Regarding `Cc1cnc(N)nc1-c1cc(C(=O)N[C@H](CO)c2ccccc2)n(Cc2ccccc2)c1` [erk000319], the Ki was 3980 nM. With `Cc1cnc(N)nc1-c1cc(C(=O)NCc2ccc(F)c(F)c2)n(C)c1` [erk000327], the inhibition constant (Ki) was 3470 nM. For the molecule `CCN(CC)CCNc1ncc(C)c(-c2c[nH]c(C(=O)NCc3ccc(F)c(F)c3)c2)n1` [erk000364], the Ki stood at 3980 nM. Turning to `Cc1cnc(Nc2nc(N3CCCCC3)nc3ccccc23)nc1-c1c[nH]c(C(=O)NCc2ccccc2)c1` [erk000377], the inhibitory constant (Ki) stood at 2090 nM.
